Literature values, collected in EP4755392A1, “ORAL PREPARATION FOR IMPROVING MINIMAL ERYTHEMA DOSE” (Mitsubishi Corporation Life Sciences Limited, priority 2023, dated 2025).

Conditions: after 6 months, ingesting 250 mg or more

Q: Which “blood glutathione amount increased” value does the source give for `N[C@@H](CCC(=O)N[C@@H](CS)C(=O)NCC(=O)O)C(=O)O` [glutathione] here?
A: The value was 17%.
